{
  "source": "patent US9555038B2",
  "about": "“Heterocycle-substituted tetracyclic compounds and methods of use thereof for the treatment of viral diseases” (Merck Sharp & Dohme Corp., priority 2013, dated 2017)",
  "key": {"HCV replicon 1A": {"system": "HCV replicon 1A", "experiment": "Cell-based HCV Replicon Assay A, replicon 1A", "in_short": "(§1)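 HCV replicon RNA levels are measured by multiplexed real-time RT-PCR, with cyclophilin as internal control, after 3 days of compound exposure. Compounds are tested in 10 serial dilutions starting between 333.3 nM and 1.667 nM, with 5% FBS in the medium.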"}, "HCV replicon 1AY93H": {"system": "HCV replicon 1AY93H", "experiment": "Cell-based HCV Replicon Assay A, replicon 1AY93H", "in_short": "as §1"}, "HCV replicon 2B": {"system": "HCV replicon 2B", "experiment": "Cell-based HCV Replicon Assay A, replicon 2B", "in_short": "as §1"}, "HCV replicon 1AQ30D": {"system": "HCV replicon 1AQ30D", "experiment": "Cell-based HCV Replicon Assay B, replicon 1AQ30D", "in_short": "(§2)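 Replicon cells seeded in 5% FBS; compounds added 24 h later, then 3 days' incubation. Replicon RNA quantified by real-time RT-PCR with genotype-specific primers/probes (NS5B amplicon for 1b). EC50 = concentration raising CT by 1 over projected baseline.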"}, "HCV replicon 1B": {"system": "HCV replicon 1B", "experiment": "Cell-based HCV Replicon Assay B, replicon 1B", "in_short": "as §2"}, "[1]": {"details": "read-out: 1A Y93H IC50, replicon 1AY93H"}, "[2]": {"details": "Hepatitis C virus, read-out: 1A Q30D IC50 (nM), replicon 1AQ30D"}, "[3]": {"details": "read-out: 1A Q30D IC50, replicon 1AQ30D"}},
  "note": "Read-outs that look alike come from different tables or passages of the source.",
  "data": [
    {"smiles": "COC(=O)NC(C(=O)N1CCC[C@H]1c1ncc(-c2ccc3c(c2)cc2n3C(c3cnc(C4CCC4)s3)Oc3cc(-c4cnc([C@@H]5CCCN5C(=O)[C@@H](NC(=O)OC)C(C)C)[nH]4)cc(C)c3-2)[nH]1)C1C[C@@H](C)O[C@@H](C)C1", "note": "(single isomer, unassigned) [Compound 219]", "values": [
      {"measurement": "IC50", "setting": "HCV replicon 1A", "value": 2.7, "unit": "pM"},
      {"measurement": "IC50", "setting": "HCV replicon 1AY93H; [1]", "value": 0.013, "unit": "nM"},
      {"measurement": "IC50", "setting": "HCV replicon 2B; read-out: 2B IC50, replicon 2B", "value": 0.003, "unit": "nM"},
      {"measurement": "IC50", "setting": "HCV replicon 1AQ30D; [2]", "value": 0.096, "unit": "nM"},
      {"measurement": "IC50", "setting": "HCV replicon 1B; Hepatitis C virus", "value": 4, "unit": "pM"}
    ]},
    {"smiles": "COC(=O)N[C@H](C(=O)N1CCC[C@H]1c1ncc(-c2cc(F)c3c(c2)OC(c2cnc(C4(C)CC4)s2)n2c-3cc3cc(-c4cnc([C@@H]5CCCN5C(=O)[C@@H](NC(=O)OC)C(C)C)[nH]4)ccc32)[nH]1)C(C)C", "note": "(single isomer, unassigned) [Compound 511]", "values": [
      {"measurement": "IC50", "setting": "HCV replicon 1A; Hepatitis C virus", "value": 9.7, "unit": "pM"},
      {"measurement": "IC50", "setting": "HCV replicon 1AY93H; [1]", "value": 0.049, "unit": "nM"},
      {"measurement": "IC50", "setting": "HCV replicon 2B; read-out: 2B IC50, replicon 2B", "value": 0.095, "unit": "nM"},
      {"measurement": "IC50", "setting": "HCV replicon 1AQ30D; [2]", "value": 0.847, "unit": "nM"},
      {"measurement": "IC50", "setting": "HCV replicon 1B", "value": 8.7, "unit": "pM"}
    ]},
    {"smiles": "COC(=O)N[C@H](C(=O)N1CCC[C@H]1c1ncc(-c2cc(F)c3c(c2)OC(c2cnc(C(F)F)s2)n2c-3cc3cc(-c4cnc([C@@H]5CCCN5C(=O)[C@@H](NC(=O)OC)C(C)C)[nH]4)ccc32)[nH]1)C(C)C", "note": "(single isomer, unassigned) [Compound 20]", "values": [
      {"measurement": "IC50", "setting": "HCV replicon 1A; Hepatitis C virus", "value": 1.5, "unit": "pM"},
      {"measurement": "IC50", "setting": "HCV replicon 1AY93H; [1]", "value": 0.0083, "unit": "nM"},
      {"measurement": "IC50", "setting": "HCV replicon 2B; read-out: 2B IC50, replicon 2B", "value": 0.008, "unit": "nM"},
      {"measurement": "IC50", "setting": "HCV replicon 1AQ30D; [2]", "value": 0.01, "unit": "nM"},
      {"measurement": "IC50", "setting": "HCV replicon 1B; Hepatitis C virus", "value": 1, "unit": "pM"}
    ]},
    {"smiles": "COC(=O)NC(C(=O)N1CCC[C@H]1c1ncc(-c2ccc3c(c2)cc2n3C(c3cnc(C4CC4)s3)Oc3cc(-c4cnc([C@@H]5CCCN5C(=O)[C@@H](NC(=O)OC)C(C)C)[nH]4)cc(C)c3-2)[nH]1)C1C[C@@H](C)O[C@@H](C)C1", "note": "(single isomer, unassigned) [Compound 212]", "values": [
      {"measurement": "IC50", "setting": "HCV replicon 1A; Hepatitis C virus", "value": 6.8, "unit": "pM"},
      {"measurement": "IC50", "setting": "HCV replicon 1AY93H; Hepatitis C virus, read-out: 1A Y93H IC50 (nM), replicon 1AY93H", "value": 0.0354, "unit": "nM"},
      {"measurement": "IC50", "setting": "HCV replicon 2B; Hepatitis C virus, read-out: 2B IC50 (nM), replicon 2B", "value": 0.007, "unit": "nM"},
      {"measurement": "IC50", "setting": "HCV replicon 1AQ30D; [2]", "value": 0.499, "unit": "nM"},
      {"measurement": "IC50", "setting": "HCV replicon 1B; Hepatitis C virus", "value": 8, "unit": "pM"}
    ]},
    {"smiles": "COC(=O)NC(C(=O)N1[C@@H]2C[C@@H]2C[C@H]1c1ncc(-c2ccc3c(c2)cc2n3C(c3cnc(C4(C)CCCC4)s3)Oc3cc(-c4cnc([C@@H]5CCCN5C(=O)[C@@H](NC(=O)OC)C(C)C)[nH]4)cc(F)c3-2)[nH]1)C1CCOC(C)(C)C1", "note": "(single isomer, unassigned) [Compound 477]", "values": [
      {"measurement": "IC50", "setting": "HCV replicon 1A", "value": 3.2, "unit": "pM"},
      {"measurement": "IC50", "setting": "HCV replicon 1AY93H; [1]", "value": 0.003, "unit": "nM"},
      {"measurement": "IC50", "setting": "HCV replicon 2B; read-out: 2B IC50, replicon 2B", "value": 0.008, "unit": "nM"},
      {"measurement": "IC50", "setting": "HCV replicon 1AQ30D; [3]", "value": 0.009, "unit": "nM"},
      {"measurement": "IC50", "setting": "HCV replicon 1B", "value": 3.7, "unit": "pM"}
    ]},
    {"smiles": "COC(=O)NC(C(=O)N1[C@@H]2C[C@@H]2C[C@H]1c1ncc(-c2ccc3c(c2)cc2n3C(c3cnc(C4(C)CC4)s3)Oc3cc(-c4cnc([C@@H]5CCCN5C(=O)[C@@H](NC(=O)OC)C(C)C)[nH]4)cc(F)c3-2)[nH]1)C1C[C@@H](C)O[C@@H](C)C1", "note": "(single isomer, unassigned) [Compound 463]", "values": [
      {"measurement": "IC50", "setting": "HCV replicon 1A; Hepatitis C virus", "value": 2.6, "unit": "pM"},
      {"measurement": "IC50", "setting": "HCV replicon 1AY93H; [1]", "value": 0.002, "unit": "nM"},
      {"measurement": "IC50", "setting": "HCV replicon 2B; read-out: 2B IC50, replicon 2B", "value": 0.007, "unit": "nM"},
      {"measurement": "IC50", "setting": "HCV replicon 1AQ30D; [3]", "value": 0.012, "unit": "nM"},
      {"measurement": "IC50", "setting": "HCV replicon 1B; Hepatitis C virus", "value": 2.8, "unit": "pM"}
    ]},
    {"smiles": "COC(=O)NC(C(=O)N1CCC[C@H]1c1ncc(-c2ccc3c(c2)cc2n3C(c3cnc(C4CC4)s3)Oc3cc(-c4cnc([C@@H]5CCCN5C(=O)[C@@H](NC(=O)OC)C(C)C)[nH]4)cc(F)c3-2)[nH]1)C1CCOC(C)(C)C1", "note": "(single isomer, unassigned) [Compound 308]", "values": [
      {"measurement": "IC50", "setting": "HCV replicon 1A", "value": 4.1, "unit": "pM"},
      {"measurement": "IC50", "setting": "HCV replicon 1AY93H; [1]", "value": 0.0757, "unit": "nM"},
      {"measurement": "IC50", "setting": "HCV replicon 2B; read-out: 2B IC50, replicon 2B", "value": 0.047, "unit": "nM"},
      {"measurement": "IC50", "setting": "HCV replicon 1AQ30D; [3]", "value": 0.496, "unit": "nM"},
      {"measurement": "IC50", "setting": "HCV replicon 1B; Hepatitis C virus", "value": 3, "unit": "pM"}
    ]},
    {"smiles": "COC(=O)N[C@H](C(=O)N1CCC[C@H]1c1ncc(-c2cc(F)c3c(c2)OC(c2ncc(-c4ccc(F)cc4)s2)n2c-3cc3cc(-c4cnc([C@@H]5CCCN5C(=O)[C@@H](NC(=O)OC)C(C)C)[nH]4)ccc32)[nH]1)C(C)C", "note": "(single isomer, unassigned) [Compound 34]", "values": [
      {"measurement": "IC50", "setting": "HCV replicon 1A", "value": 2.2, "unit": "pM"},
      {"measurement": "IC50", "setting": "HCV replicon 1AY93H; [1]", "value": 0.0331, "unit": "nM"},
      {"measurement": "IC50", "setting": "HCV replicon 2B; read-out: 2B IC50, replicon 2B", "value": 0.022, "unit": "nM"},
      {"measurement": "IC50", "setting": "HCV replicon 1AQ30D; [3]", "value": 0.144, "unit": "nM"},
      {"measurement": "IC50", "setting": "HCV replicon 1B", "value": 1, "unit": "pM"}
    ]},
    {"smiles": "COC(=O)NC(C(=O)N1[C@@H]2C[C@@H]2C[C@H]1c1ncc(-c2ccc3c(c2)cc2n3C(c3cnc(C4CC4)s3)Oc3cc(-c4cnc([C@@H]5CCCN5C(=O)[C@@H](NC(=O)OC)C(C)C)[nH]4)cc(F)c3-2)[nH]1)C1C[C@@H](C)O[C@@H](C)C1", "note": "(single isomer, unassigned) [Compound 311]", "values": [
      {"measurement": "IC50", "setting": "HCV replicon 1A", "value": 2, "unit": "pM"},
      {"measurement": "IC50", "setting": "HCV replicon 1AY93H; [1]", "value": 0.0019, "unit": "nM"},
      {"measurement": "IC50", "setting": "HCV replicon 2B; read-out: 2B IC50, replicon 2B", "value": 0.003, "unit": "nM"},
      {"measurement": "IC50", "setting": "HCV replicon 1AQ30D; [3]", "value": 0.011, "unit": "nM"},
      {"measurement": "IC50", "setting": "HCV replicon 1B", "value": 2, "unit": "pM"}
    ]},
    {"smiles": "CCc1ncc(C2Oc3cc(-c4cnc([C@@H]5CCCN5C(=O)[C@@H](NC(=O)OC)C(C)C)[nH]4)cc(F)c3-c3cc4cc(-c5cnc([C@@H]6CCCN6C(=O)[C@@H](NC(=O)OC)C(C)C)[nH]5)ccc4n32)s1", "note": "(single isomer, unassigned) [Compound 81]", "values": [
      {"measurement": "IC50", "setting": "HCV replicon 1A; Hepatitis C virus", "value": 2.7, "unit": "pM"},
      {"measurement": "IC50", "setting": "HCV replicon 1AY93H; [1]", "value": 0.019, "unit": "nM"},
      {"measurement": "IC50", "setting": "HCV replicon 2B; read-out: 2B IC50, replicon 2B", "value": 0.027, "unit": "nM"},
      {"measurement": "IC50", "setting": "HCV replicon 1AQ30D; [2]", "value": 0.384, "unit": "nM"},
      {"measurement": "IC50", "setting": "HCV replicon 1B; Hepatitis C virus", "value": 2, "unit": "pM"}
    ]},
    {"smiles": "COC(=O)NC(C(=O)N1[C@@H]2C[C@@H]2C[C@H]1c1ncc(-c2ccc3c(c2)cc2n3C(c3cnc(C4CC4)s3)Oc3cc(-c4cnc([C@@H]5CCCN5C(=O)[C@@H](NC(=O)OC)C(C)C)[nH]4)cc(F)c3-2)[nH]1)C(C)(C)F", "note": "(single isomer, unassigned) [Compound 27]", "values": [
      {"measurement": "IC50", "setting": "HCV replicon 1A; Hepatitis C virus", "value": 1.6, "unit": "pM"},
      {"measurement": "IC50", "setting": "HCV replicon 1AY93H; [1]", "value": 0.0037, "unit": "nM"},
      {"measurement": "IC50", "setting": "HCV replicon 2B; read-out: 2B IC50, replicon 2B", "value": 0.009, "unit": "nM"},
      {"measurement": "IC50", "setting": "HCV replicon 1AQ30D; [3]", "value": 0.02, "unit": "nM"},
      {"measurement": "IC50", "setting": "HCV replicon 1B; Hepatitis C virus", "value": 2, "unit": "pM"}
    ]}
  ]
}
